Reference: patent US20230405151A1, “USE OF IRAK4 MODULATORS FOR GENE THERAPY” (Genzyme Corporation, priority 2022, published 2023)

Legend:
[1] = test system: C57BL/6J mice injected with AAV (LacZ transgene); experiment: In vivo mouse AAV model: intracellular cytokine staining of splenocytes; details: chow 30 mg/kg from 15 days prior to AAV; day 21; versus AAV group; N=10
Experimental: (§1) In-vivo mice experiments. C57BL/6J mice were purchased from Jackson Laboratories. 6-8-week male mice were divided into 3 groups—PBS group, AAV group and AAV+IRAK4 group all groups with 10 mice each. Zimlovisertib IRAK4 inhibitor (Synonyms: PF-06650833) Cat. No.: HY-19836 (MedChemExpress) was mixed with mouse chow Catalog #2016, Teklad Global 16% Protein Rodent Diets https://www.inotivco.com/rodent-natural-ingredient-2016-diets at a dose of 30 mg/kg. AAV+IRAK4 group was fed the chow with Zimlovisertib IRAK4 inhibitor 15 days prior to AAV injection whereas PBS and AAV group were fed with mouse chow Catalog #2016, Teklad Global 16% Protein Rodent Diets https://www.inotivco.com/rodent-natural-ingredient-2016-diets. PBS group mice were injected intramuscularly with 100 ul PBS, AAV group was injected intramuscularly with 1e11 vg per quadricep muscle of both legs, 100 ul volume.
Intracellular cytokine staining. Splenocytes were harvested from mouse spleens, and 2 million cells were seeded on a 96-well U-bottom plate. The cells were centrifuged at 2,000 rpm for 5 minutes and then resuspended with 100 μl of the RPMI containing 10% FBS and 1×2-mercaptoethanol. 10 μg/ml concentration of AAVrh32.33 overlapping peptide, AAVrh32.33 LacZ immunodominant peptide, and LacZ immunodominant peptide were prepared in the RPMI1640 containing 10% FBS, 1×2-mercaptoethanol, and 1:500 GolgiStop. For the positive control, 0.10 μg/ml PMA and 2 μg/ml Ionomycin solution were prepared in the RPIM1640 containing 10% FBS, 1×2-mercaptoethanol, and 1:500 GolgiStop. Then, 100 μl of the prepared solution was added to the cells, resulting in a final concentration of 5 μg/ml (or 0.05 μg/ml PMA and 1 μg/ml Ionomycin). The cells were incubated at 37° C. 5% CO2 incubator overnight to stimulate the cells. The next day, the cells were centrifuged at 2,000 rpm for 5 minutes, and then washed with the FACS buffer one time. The cells were stained with an antibody cocktail (1:100 anti-CD4 FITC, 1:100 anti-CD8a PerCP-Cy5.5, 1:100 anti-CD44 Pacific Blue, 1:100 Live/Dead Cell Stain Kit) for 30 minutes at 4° C. […]

[2] = test system: C57BL/6J mice injected with AAV (LacZ transgene); experiment: In vivo mouse AAV model: CD8 TEM and lacZ tetramer staining of PBMCs and splenocytes; details: chow 30 mg/kg from 15 days prior to AAV injection; day 14 post AAV; versus AAV group; N=10
Experimental: as §1
The same experiment design was followed with n=6 mice in each group PBS group, AAV group and AAV+IRAK4 degrader PROTAC IRAK4 degrader-1 Cat. No.: HY-129966 (MedChemExpress) that was mixed with chow at 100 mg/kg and fed to mice 15 days prior to AAV injection. […] AAV capsid used in the study had LacZ transgene. All animal experiments were conducted in accordance with the Institutional Animal Care and Use Committees at Sanofi, Framingham. Submandibular bleeds were performed weekly, and necropsy was performed three weeks post AAV injection.
PBMC isolation and surface staining. 120 ul blood was collected in K2EDTA coated tubes. The blood was mixed with DBPS at 1:1 ration and pipetted into a separate tube containing Ficoll (GE17-5442-02) to ensure no mixing of the blood and Ficoll phases. The mixture was centrifuged at 2000 RPM for 25 minutes at room temperature (9 acceleration and no braking). The buffy coat containing the peripheral blood mononuclear cells (PBMCs) was collected, transferred to a new tube, and centrifuged for five minutes at 400 RCF. PBMCs were washed three times with phosphate buffered saline (PBS) containing 1% fetal bovine serum (FBS) or fetal calf serum (FCS) and counted. The PBMC cells thus obtained were stained with different antibodies to quantify percentage of different immune cell subsets in peripheral blood.
PBMC CD8 TEM and lacZ tetramer staining. The PBMC was isolated from ˜120 μl of mouse blood, and it was transferred to a 96-well U-bottom plate. […]

For `CC[C@@H]1[C@H](F)C(=O)N[C@@H]1COc1nccc2cc(C(N)=O)c(OC)cc12` [zimlovisertib, 1-[[(2S,3S,4S)-3-Ethyl-4-fluoro-5-oxo-2-pyrrolidinyl]methoxy]-7-methoxy-6-isoquinolinecarboxamide], the “Interferon gamma producing activated CD8 T cells, splenocytes stimulated with AAV immunodominant peptide” value [1] was “reduce significantly”, the “Interferon gamma producing activated CD8 T cells, splenocytes stimulated with AAV peptide pools” value [1] was “reduce significantly” and the “Interferon gamma producing activated CD8 T cells, splenocytes stimulated with LacZ immunodominant peptide” value [1] was “reduce significantly”. The “CD44+CD62L+ effector memory cells in PBMCs” value [2] was “significant reduction” and the “LacZ tetramer positive CD8 T cells in PBMCs” value [2] was “significant reduction”.
